# Experimental data from ChEMBL document CHEMBL5331114, “Discovery of Pyxinol Amide Derivatives Bearing Amino Acid Residues as Nonsubstrate Allosteric Inhibitors of P-Glycoprotein-Mediated Multidrug Resistance” (J Med Chem, 2023).
# Assays:
# [1] = Toxicity against BALB/c mouse xenografted with Ptx-resistance human KBV cells at 20 mg/kg,ip measured after 23 days; assay type: organism-based; settings: in vivo, 552 h, time 23 day
# [2] = Induction of cell cycle arrest in human KBV cells assessed as accumulation of cells at G2-M phase at 10 uM incubated for 24 hrs by flow cytometry analysis (reference value: 24.94 +/- 0.21%); assay type: functional
# [3] = Induction of cell cycle arrest in human KBV cells assessed as accumulation of cells at S phase at 5 uM incubated for 24 hrs by flow cytometry analysis (reference value: 12.42 +/- 0.41%); assay type: functional
# [4] = Induction of cell cycle arrest in human KBV cells assessed as accumulation of cells at G1-G0 phase at 5 uM incubated for 24 hrs by flow cytometry analysis (reference value: 62.34 +/- 0.24%); assay type: functional
# [5] = Drug accumulation in human KBV cells at 10 uM incubated for 4 hrs by LC-MS/MS analysis; assay type: ADME, cell-based
# [6] = Reversal of multidrug resistance in human KBV Cells assessed as reversal fold of paclitaxel IC50 at 10 uM incubated for 72 hrs in presence of paclitaxel by MTT assay; assay type: functional
# [7] = Induction of Ptx-mediated cell cycle arrest in human KBV cells assessed as accumulation of cells at S phase at 5 uM incubated for 24 hrs in presence of paclitaxel by flow cytometry analysis (Rvb =16.63 +/- 0.4%); assay type: functional
# [8] = target: T1, ATP-dependent translocase ABCB1 (Homo sapiens, UniProt P08183); assay: Negative allosteric modulator activity at human P-gp ATP synthase hydrolytic activity assessed as inhibition of basal Pgp-ATPase activity at 1 mM incubated for 60 mins in presence of ATP by Glo-luminescence based microplate reader assay; settings: 1 h, 1000 µM
# T1 sequence (P08183 whole entry): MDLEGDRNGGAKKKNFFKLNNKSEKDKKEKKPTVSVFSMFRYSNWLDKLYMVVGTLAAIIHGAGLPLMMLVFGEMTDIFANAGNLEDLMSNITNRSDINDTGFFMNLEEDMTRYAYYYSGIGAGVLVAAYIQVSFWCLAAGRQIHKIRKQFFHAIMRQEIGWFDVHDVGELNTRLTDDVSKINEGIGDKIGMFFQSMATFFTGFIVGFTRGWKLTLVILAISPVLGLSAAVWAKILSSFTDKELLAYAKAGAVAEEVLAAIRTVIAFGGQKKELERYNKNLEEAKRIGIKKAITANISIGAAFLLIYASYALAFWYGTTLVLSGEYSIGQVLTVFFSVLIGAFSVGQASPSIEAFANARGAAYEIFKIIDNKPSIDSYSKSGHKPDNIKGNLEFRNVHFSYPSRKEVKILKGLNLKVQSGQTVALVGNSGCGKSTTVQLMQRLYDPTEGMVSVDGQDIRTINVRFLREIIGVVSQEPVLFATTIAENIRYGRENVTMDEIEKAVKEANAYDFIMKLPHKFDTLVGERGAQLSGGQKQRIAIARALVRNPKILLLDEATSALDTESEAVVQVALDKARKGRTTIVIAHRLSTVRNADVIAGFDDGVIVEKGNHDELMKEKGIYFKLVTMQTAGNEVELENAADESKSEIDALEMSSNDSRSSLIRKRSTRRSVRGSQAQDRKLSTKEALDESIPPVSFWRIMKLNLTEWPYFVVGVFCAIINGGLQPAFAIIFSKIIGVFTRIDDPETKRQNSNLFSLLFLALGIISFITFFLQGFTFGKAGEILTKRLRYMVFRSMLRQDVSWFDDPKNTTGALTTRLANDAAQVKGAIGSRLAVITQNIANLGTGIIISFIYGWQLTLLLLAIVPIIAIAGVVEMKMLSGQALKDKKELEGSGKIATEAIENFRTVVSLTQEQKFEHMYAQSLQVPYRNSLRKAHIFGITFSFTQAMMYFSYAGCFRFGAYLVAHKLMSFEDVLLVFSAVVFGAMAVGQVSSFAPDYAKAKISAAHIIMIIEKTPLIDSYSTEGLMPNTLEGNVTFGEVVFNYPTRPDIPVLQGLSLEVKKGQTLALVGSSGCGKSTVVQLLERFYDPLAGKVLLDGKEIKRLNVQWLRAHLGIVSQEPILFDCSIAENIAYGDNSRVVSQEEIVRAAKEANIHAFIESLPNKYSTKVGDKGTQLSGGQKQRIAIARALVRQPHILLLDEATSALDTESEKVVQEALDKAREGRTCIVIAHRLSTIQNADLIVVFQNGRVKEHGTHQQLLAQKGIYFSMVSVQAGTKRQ
# [9] = target: T1, ATP-dependent translocase ABCB1; assay: Negative allosteric modulator activity at human P-gp ATP synthase hydrolytic activity assessed as inhibition of basal Pgp-ATPase activity at 0.5 mM incubated for 60 mins in presence of ATP by Glo-luminescence based microplate reader assay; settings: 1 h, 500 µM
# [10] = Induction of Ptx-mediated cell cycle arrest in human KBV cells assessed as accumulation of cells at S phase at 10 uM incubated for 24 hrs in presence of paclitaxel by flow cytometry analysis (Rvb =16.63 +/- 0.4%); assay type: functional
# [11] = target: T2, P-gp (ABCB1) ATPase (Homo sapiens, UniProt P08183); assay: Negative allosteric modulator activity at human P-gp ATP synthase hydrolytic activity assessed as inhibition of Vrp-stimulated Pgp-ATPase activity incubated for 60 mins in presence of ATP by Glo-luminescence based microplate reader assay relative to DMSO; settings: probe Vrp (stimulator of the ATPase activity)
# T2 sequence (P08183 whole entry): as above
# [12] = target: T1, ATP-dependent translocase ABCB1; assay: Negative allosteric modulator activity at P-glycoprotein mediated Rhodamine-123 efflux in human KBV cells assessed as increase in intracellular Rhodamine-123 accumulation incubated for 2 hrs by flow cytometry analysis; assay type: cell-based
# [13] = Induction of cell cycle arrest in human KBV cells assessed as accumulation of cells at Sub-G1 phase at 5 uM incubated for 24 hrs by flow cytometry analysis (reference value: 1.24 +/- 0.14%); assay type: functional
# [14] = target: T2, P-gp (ABCB1) ATPase; assay: Negative allosteric modulator activity at human P-gp ATP synthase hydrolytic activity assessed as inhibition of Vrp-stimulated Pgp-ATPase activity at 25 uM incubated for 60 mins in presence of ATP by Glo-luminescence based microplate reader assay relative to DMSO; settings: probe Vrp (stimulator of the ATPase activity)
# [15] = Induction of Ptx-mediated cell cycle arrest in human KBV cells assessed as accumulation of cells at Sub-G1 phase at 10 uM incubated for 24 hrs in presence of paclitaxel by flow cytometry analysis (reference value: 1.21 +/- 0.3%); assay type: functional
# [16] = target: T1, ATP-dependent translocase ABCB1; assay: Negative allosteric modulator activity at P-glycoprotein mediated Rhodamine-123 efflux in human KBV cells assessed as increase in intracellular Rhodamine-123 accumulation incubated for 2 hrs in presence of Ptx-C by flow cytometry analysis; assay type: cell-based
# [17] = Induction of Ptx-mediated cell cycle arrest in human KBV cells assessed as accumulation of cells at G1-G0 phase at 10 uM incubated for 24 hrs in presence of paclitaxel by flow cytometry analysis (Rvb =57.76 +/- 0.78%); assay type: functional
# [18] = Induction of Ptx-mediated cell cycle arrest in human KBV cells assessed as accumulation of cells at G2-M phase at 5 uM incubated for 24 hrs in presence of paclitaxel by flow cytometry analysis (Rvb =25.34 +/- 0.92%); assay type: functional
# [19] = target: T1, ATP-dependent translocase ABCB1; assay: Negative allosteric modulator activity at P-glycoprotein mediated Rhodamine-123 efflux in human KBV cells assessed as increase in intracellular Rhodamine-123 accumulation at 10 uM incubated for 2 hrs in presence of Ptx-C by flow cytometry analysis; assay type: cell-based
# [20] = Reversal of multidrug resistance in human KBV Cells assessed as reversal fold of paclitaxel IC50 at 5 uM incubated for 72 hrs in presence of paclitaxel by MTT assay; assay type: functional
# [21] = target: T1, ATP-dependent translocase ABCB1; assay: Negative allosteric modulator activity at P-glycoprotein in human KBV cells assessed as effect on P-gp protein expression level at 10 uM incubated for 72 hrs by Western blotting analysis; assay type: cell-based
# [22] = Induction of Ptx-mediated cell cycle arrest in human KBV cells assessed as accumulation of cells at G1-G0 phase at 5 uM incubated for 24 hrs in presence of paclitaxel by flow cytometry analysis (Rvb =57.76 +/- 0.78%); assay type: functional
# [23] = Reversal of multidrug resistance in human KBV Cells assessed as increase in PTX-induced cytotoxicity by measuring cell survival rate at 5 uM incubated for 72 hrs in presence of paclitaxel by MTT assay relative to control; assay type: functional; settings: read-out: Survival
# [24] = Induction of cell cycle arrest in human KBV cells assessed as accumulation of cells at S phase at 10 uM incubated for 24 hrs by flow cytometry analysis (reference value: 12.42 +/- 0.41%); assay type: functional
# [25] = Reversal of multidrug resistance in human KBV Cells assessed as increase in PTX-induced cytotoxicity by measuring cell survival rate at 10 uM incubated for 72 hrs in presence of paclitaxel by MTT assay relative to control; assay type: functional; settings: read-out: Survival
# [26] = Drug accumulation in human KB cells at 10 uM incubated for 4 hrs by LC-MS/MS analysis; assay type: ADME, cell-based
# [27] = Induction of cell cycle arrest in human KBV cells assessed as accumulation of cells at G1-G0 phase at 10 uM incubated for 24 hrs by flow cytometry analysis (reference value: 62.34 +/- 0.24%); assay type: functional
# [28] = target: Multidrug resistance-associated protein 1 (Homo sapiens, UniProt P33527); assay: Binding affinity to ABCC1 in human KBV cells assessed as stabilization of ABCC1 at 50 uM incubated for 26 hrs by western blot based cellular thermal shift assay; assay type: cell-based
# Chain of Multidrug resistance-associated protein 1 (P33527 whole entry): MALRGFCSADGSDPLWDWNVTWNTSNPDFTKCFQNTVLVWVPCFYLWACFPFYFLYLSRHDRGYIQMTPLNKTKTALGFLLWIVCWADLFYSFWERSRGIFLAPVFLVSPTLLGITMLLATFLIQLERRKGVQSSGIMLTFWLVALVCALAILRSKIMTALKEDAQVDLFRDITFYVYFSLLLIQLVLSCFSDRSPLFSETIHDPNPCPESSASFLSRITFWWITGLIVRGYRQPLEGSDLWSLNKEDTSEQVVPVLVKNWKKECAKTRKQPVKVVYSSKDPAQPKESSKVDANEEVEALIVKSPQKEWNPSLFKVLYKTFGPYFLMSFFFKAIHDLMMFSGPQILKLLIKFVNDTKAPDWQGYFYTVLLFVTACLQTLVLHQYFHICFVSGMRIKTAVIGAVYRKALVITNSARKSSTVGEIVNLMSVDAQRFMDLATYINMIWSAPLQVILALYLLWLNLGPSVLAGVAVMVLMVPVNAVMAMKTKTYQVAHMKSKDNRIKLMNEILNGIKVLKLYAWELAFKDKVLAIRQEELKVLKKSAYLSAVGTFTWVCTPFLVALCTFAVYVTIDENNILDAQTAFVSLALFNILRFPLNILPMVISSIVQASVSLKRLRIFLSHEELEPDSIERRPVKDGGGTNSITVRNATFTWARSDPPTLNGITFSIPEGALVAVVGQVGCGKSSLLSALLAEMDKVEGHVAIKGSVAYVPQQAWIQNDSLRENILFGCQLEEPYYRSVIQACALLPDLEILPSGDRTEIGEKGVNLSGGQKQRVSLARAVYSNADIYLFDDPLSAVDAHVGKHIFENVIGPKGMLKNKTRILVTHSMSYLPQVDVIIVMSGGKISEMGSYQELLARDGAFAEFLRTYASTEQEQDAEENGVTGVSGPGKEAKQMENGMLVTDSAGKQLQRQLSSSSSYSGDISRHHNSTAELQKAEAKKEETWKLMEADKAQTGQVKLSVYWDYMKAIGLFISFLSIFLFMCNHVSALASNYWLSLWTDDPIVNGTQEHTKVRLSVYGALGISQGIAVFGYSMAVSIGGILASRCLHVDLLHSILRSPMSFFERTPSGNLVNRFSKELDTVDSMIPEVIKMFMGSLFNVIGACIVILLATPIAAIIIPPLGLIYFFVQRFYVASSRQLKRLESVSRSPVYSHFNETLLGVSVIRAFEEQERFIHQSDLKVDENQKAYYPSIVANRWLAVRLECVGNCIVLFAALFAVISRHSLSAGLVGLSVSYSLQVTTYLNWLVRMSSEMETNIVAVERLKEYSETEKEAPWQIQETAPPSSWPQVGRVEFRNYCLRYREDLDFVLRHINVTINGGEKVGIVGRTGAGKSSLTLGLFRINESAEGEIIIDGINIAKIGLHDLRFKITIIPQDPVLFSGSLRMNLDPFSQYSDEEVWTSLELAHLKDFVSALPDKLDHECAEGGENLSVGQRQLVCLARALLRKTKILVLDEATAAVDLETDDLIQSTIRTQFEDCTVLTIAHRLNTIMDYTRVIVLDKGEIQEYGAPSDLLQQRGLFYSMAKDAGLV
# [29] = Induction of cell cycle arrest in human KBV cells assessed as accumulation of cells at Sub-G1 phase at 10 uM incubated for 24 hrs by flow cytometry analysis (reference value: 1.24 +/- 0.14%); assay type: functional
# [30] = target: T2, P-gp (ABCB1) ATPase; assay: Negative allosteric modulator activity at human P-gp ATP synthase hydrolytic activity assessed as inhibition of basal Pgp-ATPase activity incubated for 60 mins in presence of ATP by Glo-luminescence based microplate reader assay relative to DMSO
compound,measurement,setting,value
CC(C)(O)[C@H]1CC[C@@](C)([C@H]2CC[C@]3(C)[C@@H]2[C@H](O)C[C@@H]2[C@@]4(C)CC[C@H](NC(=O)[C@@H]5CCCN5)C(C)(C)[C@@H]4CC[C@]23C)O1,Activity,[1],Non-Toxic
same,Activity,[2],25.93%
same,Activity,[3],13.38%
same,Activity,[4],59.58%
same,Drug uptake,[5],Active
same,fold change (FC),[6],67
same,Activity,[7],22%
same,inhibition (INH),[8],Not Active
same,inhibition (INH),[9],Not Active
same,Activity,[10],20.53%
same,inhibition at 1 h,[11],40%
same,Activity,[12],Dose-Dependent Effect
same,Activity,[13],0.58%
same,"inhibition at 1 h, 25 µM",[14],60%
same,Activity,[15],8.58%
same,Activity,[16],Dose-Dependent Effect
same,Activity,[17],36.65%
same,Activity,[18],31.28%
same,Activity,[19],Not Active
same,fold change (FC),[20],21
same,Activity,[21],Not Active
same,Activity,[22],45.93%
same,viability at 5 µM,[23],34%
same,Activity,[24],13.74%
same,viability at 10 µM,[25],30%
same,Drug uptake,[26],Active
same,Activity,[27],60.47%
same,Activity,[28],Not Active
same,Activity,[29],1%
same,inhibition at 1 h,[30],13%
